Values of other authors as cited in patent US8883786B2, “Glucocorticoid receptor antagonists” (Hoffmann-La Roche Inc., priority 2007, dated 2014).

Experiments:
[1] = clinical administration, acute, normal volunteers
[2] = long term treatment (up to 1 year)
ob/ob mice = conditions: leptin deficient ob/ob mice
[3] = system: Hypothalamus-Pituitary gland-Adrenal gland (HPA) axis; conditions: HPA axis stimulation via feed-back mechanism
gluconeogenic enzymes = conditions: db/db mice
[4] = clinical administration, chronic, Cushing's patients

For `CC#C[C@]1(O)CC[C@H]2[C@@H]3CCC4=CC(=O)CCC4=C3[C@@H](c3ccc(N(C)C)cc3)C[C@@]21C` [RU486/mifepristone, mifepristone], the fasting plasma glucose [1] is given as “decrease of fasting plasma glucose”, the adrenal insufficiency symptoms [2] is given as “induces some adrenal insufficiency symptoms” and the fasting plasma glucose (ob/ob mice) is given as “normalizes fasting plasma glucose”. The “endogenous corticosteroids circulating in the blood” value [3] was “increase of endogenous corticosteroids circulating in the blood”, the “activity of gluconeogenic enzymes” value (gluconeogenic enzymes) was “normalizes” and the “plasmatic HbA1c” value [4] was “decrease of plasmatic HbA1c”.
